Patent publication US20250276116A1, “METHODS OF […] DUE TO EXTR[…] OXYGENATION” (Tufts Medical Center, Inc., priority 2021, published 2025)
“Also recorded” adds a separate entry of the source.

Tests used:
[1] = system: ischemia-reperfusion injury (AMI, LAD occlusion); assay: Swine AMI model: intracoronary elamipretide before VA-ECMO, reperfusion delayed 30 minutes, then 180 minutes of reperfusion; format: in vivo
Procedure: To begin exploring whether stabilizing CL activity can limit myocardial infarct size during VA-ECMO support for AMI, we employed an over-the-wire coronary angioplasty balloon to delivery elamipretide into the area at risk while maintaining occlusion of the LAD. We treated adult male swine with a single IC injection of either elamipretide (0.05 ug/kg/minute IC over 10 minutes) or vehicle prior to initiating VA-ECMO and then delayed coronary reperfusion for 30 minutes, thereby allowing the drug to reach the area at risk and stabilize CL. Elamipretide was continued as an IV infusion (0.05 ug/kg/minute) during 180 minutes of reperfusion. […] Elamipretide dosing was based on prior reports (Kloner et al., J. Am. Heart Assoc. 1(3):e001644, 2012; Gibson et al., Eur. Heart J. 37(16):1296-1303, 2016).

[2] = system: LV infarct scar after AMI; assay: Late-term outcomes in swine 28 days after AMI with VA-ECMO, with or without cardioprotective drug; format: in vivo; settings: at 30 days; VA-ECMO + elamipretide vs reperfusion alone or VA-ECMO alone before reperfusion; FIG. 6
Procedure: To explore late-term outcomes after VA-ECMO with or without cardioprotective drug therapy in AMI, we decannulated, recovered, and monitored swine for 28 days after peripheral cannulation for VA-ECMO support. Adult male swine were subjected to coronary occlusion followed by reperfusion alone or VA-ECMO before reperfusion for 180 minutes. In a separate group, swine were treated with a cardioprotective agent before initiation of VA-ECMO with a 30-minute delay to reperfusion. After 28 days, we identified for the first time that compared to reperfusion alone, VA-ECMO increases infarct scar size and impairs LV function after AMI (FIGS. 5A and 5B). […] These findings support our central hypothesis that VA-ECMO promotes LV scar after AMI and further that treatment with a cardioprotective agent reduces LV scar size 30 days after AMI, which may have broad reaching implications for any patient with acute myocardial infarction or patients at risk of developing cardiac impairment while receiving VA-ECMO. Broad groups of patients may be treated using this approach including, e.g., all AMI patients and all patients treated with VA-ECMO. Indications include, for example, cardiogenic shock, heart failure, lung failure, myocarditis, trauma, and arrhythmia. […] (FIG. 6).

cardiolipin = assay: Mitochondrial cardiolipin in the infarct zone, swine IRI with ECMO / EC-Pella (FIGS. 9C-9D); format: in vivo; settings: to a similar degree as pre-emptive ECPella
Procedure: Ischemia-reperfusion injury (IRI) was induced in adult swine via percutaneous occlusion of the left anterior descending artery (LAD) for 90 minutes, followed by activation of either ECMO alone for 30 minutes or EC-Pella for 45 minutes with persistent LAD occlusion. All groups underwent 180 minutes of reperfusion (n=4-6/group). To study whether the sequence of device activation impacts infarct size, we compared activation of ECMO alone for 30 minutes followed by simultaneous Impella CP for 15 minutes (Bailout EC-Pella) versus Impella CP activation for 30 minutes followed by simultaneous ECMO for 15 minutes (Pre-emptive EC-Pella) before reperfusion. LV hemodynamics and ventriculo-arterial (VA) coupling were assessed.
Compared to IRI and ECMO alone, EC-Pella decreased PVA when applied as pre-emptive ECPella but not Bailout ECPella (FIG. 7). Both EC-Pella configurations decreased infarct size (FIG. 8A), increased cardioprotective signaling via the reperfusion injury salvage kinase pathway (FIG. 8B), and reduced apoptosis and pro-apoptotic signaling (FIG. 8C). Pre-emptive, but not bailout, ECPella preserved mitochondrial […] tafazzin levels (FIGS. 9A-B), increased mitochondrial cardiolipin levels (FIG. 9C), and reduced the ratio of immature: mature cardiolipin (MLCL: CL ratio; FIG. 9D) within the infarct zone compared to ECMO alone.

[3] = system: anterior ST-segment elevation myocardial infarction; settings: IV elamipretide given before reperfusion; cited from earlier work
[4] = elamipretide plus VA-ECMO, FIG. 4C

D-Arg-2′,6′-Dmt-Lys-Phe-NH2 [elamipretide]
reduction of infarct size compared to IRI plus VA-ECMO support ([1]; adult male swine, 0.05 ug/kg/minute IC over 10 minutes before VA-ECMO, reperfusion delayed 30 minutes, IV infusion during 180 minutes reperfusion, vs vehicle): 70% | reduction of infarct size compared to IRI alone ([1]; adult male swine, elamipretide IC before VA-ECMO, reperfusion delayed 30 minutes): 55% | infarct size compared to reperfusion without VA-ECMO (in words) ([1]; elamipretide before initiation of VA-ECMO): significantly reduces infarct size | MLCL:CL ratio in the infarct zone ([1]; elamipretide plus VA-ECMO, FIG. 4B): decreased | H202 levels in the infarct zone [1, 4]: decreased | mitochondrial protease activity in the infarct zone [1, 4]: decreased | ETC complex function ([1]; elamipretide plus VA-ECMO, FIG. 4E): improved ETC complex function | infarct size compared to IRI alone, elamipretide without VA-ECMO ([1]; elamipretide treatment without VA-ECMO, FIG. 4A): failed to reduce infarct size; also recorded: did not reduce infarct size | infarct (LV) scar size [2]: reduced infarct scar size; also recorded: can limit LV scar size | mitochondrial cardiolipin levels in the infarct zone (cardiolipin; FIG. 9C): increases cardiolipin | mono-lysl cardiolipin: mature cardiolipin (MLCL:CL) ratio in the infarct zone (cardiolipin; FIG. 9D): reduces | infarct size in humans (EMBRACE-STEMI Trial) [3]: failed to reduce infarct size
